Measured values taken from EP4722236A1, “INSULIN DERIVATIVE AND USE THEREOF” (The United Bio-Technology (Hengqin) Co., Ltd., priority 2023, dated 2024).

Experiments:
[1] = biological target: T1, human serum albumin (HSA) (Homo sapiens, UniProt P02768); experiment: In vitro binding to HSA via SPR (Biacore 8K)
Description: (§1) According to the instructions for the Amine Coupling Kit, Type 2 (Cytiva), immobilize human serum albumin onto the surface of the CM5 sensor chip of the S Series. […] Human serum albumin (HSA) was diluted to 20 µg/mL with acetic acid solution of pH 4.5. The EDC/NHS mixture solution, HSA protein solution, and 1M ethanolamine-hydrochloric acid solution were added to the detection plate according to the program settings. b) The detection plate was placed into the Biacore 8K sample compartment. The EDC/NHS mixture solution, HSA protein solution, and 1M ethanolamine-hydrochloric acid solution were sequentially injected into the channels on the surface of the CM5 chip by the Biacore 8K according to the program. Through this process, the chip was activated, the ligand was coupled, and the chip was deactivated. Each channel consists of two circulation pools, with circulation pool 1 serving as the reference channel undergoing only surface activation and deactivation without injection of HSA protein solution.
(§2) The detection plate was placed into the sample compartment of the Biacore 8K, with the running buffer serving as the 0-concentration reference sample. c) Run the detection program, with samples sequentially injected into each channel of the chip according to the program.
(§3) Finally, the data was analyzed using BiaCore Insight Evaluation Software, employing a 1:1 binding model for analysis.

normal SD rats = experiment: Pharmacodynamic study in normal SD rats (blood glucose, single subcutaneous dose); format: in vivo; details: for Blood Glucose Levels: Table 4.2, SD rats, 650 nmol/kg s.c. single dose, Mean ± SEM, n = 8
Description: Normal male SD rats aged 8-9 weeks, body weight 280-320 g, were selected. Animals were housed in animal housing facilities with strictly controlled environmental conditions, where the temperature is maintained between 20°Cand 24°C and humidity was kept between 30 and 70%. During the experiment, animals were housed individually with free access to food and water.
After one week of adaptive feeding, the experiment commenced. Rats were assigned to Solvent group 1, Solvent group 2, and the treatment group based on body weight and blood glucose levels before administration, with eight rats per group. The administered doses were all 650 nmol/kg.
The above drugs were dissolved in the solvent to a concentration of 216.7 nmol/mL. The dosing volume is 3 mL/kg. For a single subcutaneous administration, with the administration time set as 0 hours, blood glucose levels were measured at 0 h before dosing, and at 4 h, 8 h, 24 h, 28 h, 48 h, 72 h, 96 h, and 120 h after dosing (without dietary restrictions).

[2] = biological target: T1, human serum albumin (HSA); details: hsa on cm5 chip
Description: as §1, §2, §3

[3] = HSA on CM5 chip, 1:1 binding model

T1 sequence (P02768 25-609): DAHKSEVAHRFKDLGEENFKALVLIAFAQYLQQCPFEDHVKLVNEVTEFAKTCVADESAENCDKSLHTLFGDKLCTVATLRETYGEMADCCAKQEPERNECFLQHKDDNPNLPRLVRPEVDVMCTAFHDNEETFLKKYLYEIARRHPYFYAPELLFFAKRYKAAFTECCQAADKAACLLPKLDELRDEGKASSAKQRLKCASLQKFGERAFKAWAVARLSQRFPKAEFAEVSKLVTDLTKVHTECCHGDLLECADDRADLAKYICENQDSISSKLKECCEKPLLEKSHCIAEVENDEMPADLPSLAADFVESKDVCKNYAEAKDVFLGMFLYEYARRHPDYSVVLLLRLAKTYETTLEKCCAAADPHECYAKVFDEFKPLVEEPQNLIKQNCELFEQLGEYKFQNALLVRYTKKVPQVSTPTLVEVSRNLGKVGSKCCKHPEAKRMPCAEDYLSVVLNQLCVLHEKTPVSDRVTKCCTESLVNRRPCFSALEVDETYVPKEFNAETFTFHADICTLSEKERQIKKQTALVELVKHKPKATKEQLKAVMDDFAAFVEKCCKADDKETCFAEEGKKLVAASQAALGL

ka [1, 3]: 612 M⁻¹ s⁻¹ | kd [1, 3]: 0.169 s⁻¹ | Kd [2]: 275 µM
Substance: A14E, B16H, B25H, B29K (N^ε-[1-(19-Carboxyl-nonadecyloxy)-β-D-glucuronyl]-γGlu-[2-(2-{2-[2-(2-Aminoethoxy) ethoxy]acetylamino}ethoxy)ethoxy]acetyl), desB27, desB30 human insulin [Compound 4]
binding affinity to HSA ([1]; comparison in words with Icodec, SPR): superior binding affinity to HSA compared to Icodec | Blood Glucose Levels (normal SD rats; 0 h (before dosing)): 7.3 ± 0.1 | Blood Glucose Levels (normal SD rats; 4 h): 3.6±0.3 | Blood Glucose Levels (normal SD rats; 24 h): 4.2±0.4 | Blood Glucose Levels (normal SD rats; 48 h): 4.4±0.5 | Blood Glucose Levels (normal SD rats; 72 h): 6.6±0.5 | Blood Glucose Levels (normal SD rats; 96 h): 7.8±0.1 | Blood Glucose Levels (normal SD rats; 120 h): 7.5 ± 0.1 | hypoglycemic effect (normal SD rats; comparison in words with Icodec, SD rats, s.c.): superior to Icodec
